Measured values published in patent publication US6958360B2, “Attractant pheromone for the Colorado potato beetle” (The United States of America as represented by the …, priority 2001, dated 2005).
Entries after “also recorded” stand apart in the source; their conditions may differ. Marks after values point to notes of the source that are not given here.

Assays:
[1] = test system: antennal olfactory receptors (short sensillum on the penultimate antennal segment of a CPB); test: Single sensillum (single cell) recording of receptor neuron response; set-up: species or system Leptinotarsa decemlineata; details: 100 ng source load; solvent control 8
Protocol: Sensitivity of antennal olfactory receptors for the racemate and optical isomers of the male specific compound were tested using coupled GC/EAD and single sensillum recording techniques. GC/EAD tests involved injection of 1 μl of serial dilutions of 3,7-dimethyl-2-oxo-oct-6-ene-1,3-diol (CPB I).

[2] = test system: Colorado potato beetle (CPB); test: Open Y-track olfactometer laboratory behavioral bioassay, pheromone and plant volatile blends; assay type: in vivo, Leptinotarsa decemlineata
Protocol: Insects: All life stages were reared on potted potato plants kept in screened cages inside incubators set for 16L:8D, 25° C. during photophase, 23° C. during scotophase, and 80% R.H. Upon emergence adult beetles were kept individually in plastic cups with perforated plastic snap-on lids, and provided with clean pieces of paper toweling and potato foliage daily.
Bioassay apparatus and protocol: Stock solutions of test compounds, e.g. (S)-CPB I, and individual plant volatiles 2-phenylethanol, nonanal and (±)-linalool, were prepared at 10 μg/μl in hexane. Serial dilutions were made to obtain a test solution of 0.1 μg/μl. Each bioassay treatment of CPB I used a 10 μl aliquot of test solution, or a total of 1 μg of neat material. A […] stock solution of a 3-component blend of selected potato volatiles, (Z)-3-hexenyl acetate, linalool, and methyl salicylate, was prepared as follows: 8.3 μl of each was added to 975 μl of mineral oil, creating a solution of 25 μg of blend components/μl. This stock solution was diluted to obtain a solution of 2.5 μg of blend components/μl. Each bioassay treatment of blend used a 20 μl aliquot of test solution, or a total of 50 μg (16.67 μg/component) of the components.
Prior to testing at age 7-14 days, unmated insects were held individually in 5.5 oz. cups, provided with fresh potato foliage on a continuous basis, and maintained under incubator conditions of 16L:8D, 80-90% R.H., and “day” and “night” temperatures of 25° C. and 23° C., respectively. On the day of testing, insects were transferred to smaller 1 oz. cups and held for 1-3 hrs with moist filter paper but no foliage, then held in darkness for an additional 1-2 hrs.
Individual chemicals and chemical blends were tested for activity in an open Y-track olfactometer modified after Visser and Piron (1998) and described in detail by Dickens (1999; 2000; and Dickens, J. C., et al., Breaking a paradigm: male-produced aggregation pheromone for Colorado potato beetle. Journal of Experimental Biology, 205: 1925-1933 (2002)). In brief, odorous stimuli emanating from synthetic blends on filter paper discs (2.5 cm dia.; Whatman™ #1 filter paper) in 500 ml Ehrlenmeyer flasks were delivered to either side of the device. Test odorants were pipetted onto 3-cm diam. filter paper disks, which were then transferred, using long forceps, into the Erlenmeyer flasks used in the assay. If only a single test solution were being used per treatment, it was placed in the center of the filter paper; if 2 test solutions were being used per treatment, the mineral oil solution was placed in the center, and the hexane solution was spotted around the edge of the filter paper disk. Treatments were replaced after 30 minutes of testing in order to minimize variation in odor concentrations. The location of the chemical blend was switched from one side of the bioassay apparatus to the other side midway through each run in order to avoid bias not associated with the experimental treatment. Hydrocarbon free air that was humidified by passing through distilled water carried the odor molecules to either arm of the bioassay apparatus. Airflow was regulated to 1 l/min by flow meters. Experiments were conducted in a darkened room at 22° C. in which the only source of light was that associated with the bioassay device. For all bioassays at least 40 adults (20 males and 20 females) were tested. Orientation was scored as soon as the test insect had moved completely from the horizontal to one of the 45° angle extension arms of the bioassay device. Following each test, the bioassay device was cleaned with acetone to remove contamination left by the insect.
Statistical analysis: Laboratory bioassays were assessed for significant differences by the hypothesis on binomial proportions based on the standard normal approximation (Brase and Brase, 1983).

[3] = test system: Colorado potato beetle (CPB); test: Open Y-track olfactometer behavioral bioassay, optical isomers vs solvent control; assay type: in vivo, Leptinotarsa decemlineata; details: for orientation preference (in words): serial source loads 0.0001 to 1.0 μg vs solvent control, male and female
Protocol: Chemical blends and plant foliage were tested for behavioral activity in an open Y-track olfactometer modified after Visser and Piron (Visser, J. H., and P. G. M. Piron, Proceedings of the Section Experimental and Applied Entomology of the Netherlands Entomological Society Amsterdam, 9: 41-46 (1998)) and described in detail by Dickens (Dickens, J. C., Agric. Forest Entomol., 1: 47-54 (1999)). In brief, odorous stimuli emanating from volatile collections from CPB males feeding on potato plants or the male-specific compound on filter paper discs (2.5 cm dia.; Whatman™ #1 filter paper) in Ehrlenmeyer flasks were delivered to either side of the device. Hydrocarbon free air that was humidified by passing through distilled water carried the odor molecules to either arm of the bioassay apparatus. Treatments were replenished after 30 min of use in the bioassay apparatus. Airflow was regulated to 1 l/min by flowmeters. Experiments were conducted in a darkened room at 22° C. in which the only source of light was that associated with the bioassay device. For all bioassays, at least 20 males and 20 females were tested.
Volatile collections from male CPB feeding for three hours on a potato plant and serial dilutions of the male specific compound were tested as 10 μl aliquots placed on a filter paper disc as described above. The male specific compound was tested at 1.0 μg/10 μl solvent (hexane) and in a dilution series ranging from 0.0001 to 1.0 μg/10 μl solvent.
Prior to testing at age 7-14 days, unmated insects were held individually in 5.5 oz. cups, provided with fresh potato foliage on a continuous basis, and maintained under incubator conditions of a 16:8 light:dark cycle, 80-90% R.H., and “day” and “night” temperatures of 25° C. and 23° C., respectively. On the day of testing, insects were transferred to smaller 1 oz. cups and held for 1-3 hrs with moist filter paper but no foliage, then held in darkness for an additional 1-2 hrs.
Individual testing in a darkened room at 22° C. began by allowing the beetle to climb onto or be placed approximately midway up the vertical rod of the “T.” In response to a positive phototaxis to light from a flashlight mounted above the “T” and negative geotaxis, the beetles generally climbed upward. Once the insect began waving its antennae, presumably in response to test odors, its forward progress continued. Orientation was scored as soon as the test insect had moved completely from the horizontal to one of the 45 extension arms of the bioassay device. Following each test, the bioassay device was cleaned with acetone to remove contamination left by the insect. For any given series of tests, approximately half were done with the treatment and associated test apparatus on one side, and half were done with them on the other side.
Laboratory bioassays were assessed for significant differences by the hypothesis on binomial proportions based on the standard normal approximation (Brase, C. H., and C. P. Brase (1983), Understanding Statistics, Lexington, Mass.: D. C. Heath).

For `CC(C)=CCC[C@](C)(O)C(=O)CO` [(S)-CPB I, (S)-3,7-dimethyl-2-oxo-oct-6-ene-1,3-diol], the “action potentials during 500 msec following the initial phasic increase” value [1] was 25 action potentials, the “Female % to A.” value ([2]; B = Control (solvent)) was 90%** and the “Male % to A.” value ([2]; B = Control (solvent)) was 90%**. For the same compound, the “Total % to A.” value ([2]; B = Control (solvent)) was 90%**, the “Female % to A.” value ([2]; B = Plant blend) was 50% and the “Male % to A.” value ([2]; B = Plant blend) was 50%. For the same compound, the “Total % to A.” value ([2]; B = Plant blend) was 50%, the “attraction / preference (in words)” value ([2]; comparator as in the treatment pair of Table 2) was “attracted both male and female beetles; also recorded: no preference was shown for either attractant” and the individuals attracted ([3]; both sexes, from threshold through highest source load tested (1 μg)) was 80% to 90. For the same compound, the “behavioral threshold, females” value ([3]; female CPB, vs solvent control) was 0.01 μg source load, the “behavioral threshold, males” value ([3]; male CPB, vs solvent control) was 0.001 μg source load and the “orientation preference (in words)” value [3] was “attractive”. The “orientation preference (in words)” value ([3]; listed as (S)-enantiomer) was “oriented preferentially”.
